Read-outs that look alike come from different tables or passages of the source.
Legend:
[1] = target: T1, human serotonin transporter (hSERT) (Homo sapiens, UniProt P31645); assay: biochemical; details: [125I]RTI-55, read-out: SERT binding affinity Ki
[2] = target: T2, human dopamine transporter (hDAT) (Homo sapiens, UniProt Q01959); assay: biochemical; format: binding
[3] = target: T3, human norepinephrine transporter (hNET) (Homo sapiens, UniProt P23975); assay: cell-based; details: read-out: Reuptake Inhibition [3H]NE IC50
[4] = target: T2, human dopamine transporter (hDAT); assay: cell-based
[5] = target: T1, human serotonin transporter (hSERT); assay: cell-based
[6] = target: T3, human norepinephrine transporter (hNET); assay: biochemical; details: [125I]RTI-55, read-out: NET binding affinity Ki
[7] = Reuptake Inhibition [3H]DA IC50, Table 1-1
[8] = Reuptake Inhibition [3H]5-HT IC50, Table 1-1
[9] = Reuptake Inhibition [3H]DA IC50, Table 2-1
[10] = Reuptake Inhibition [3H]5-HT IC50, Table 2-1
[11] = Table 4, [125I]RTI-55, read-out: DAT binding affinity Ki
[12] = Table 4-1, read-out: Reuptake Inhibition [3H]DA IC50
[13] = Table 4-1, read-out: Reuptake Inhibition [3H]5-HT IC50

T1 sequence (P31645 whole entry): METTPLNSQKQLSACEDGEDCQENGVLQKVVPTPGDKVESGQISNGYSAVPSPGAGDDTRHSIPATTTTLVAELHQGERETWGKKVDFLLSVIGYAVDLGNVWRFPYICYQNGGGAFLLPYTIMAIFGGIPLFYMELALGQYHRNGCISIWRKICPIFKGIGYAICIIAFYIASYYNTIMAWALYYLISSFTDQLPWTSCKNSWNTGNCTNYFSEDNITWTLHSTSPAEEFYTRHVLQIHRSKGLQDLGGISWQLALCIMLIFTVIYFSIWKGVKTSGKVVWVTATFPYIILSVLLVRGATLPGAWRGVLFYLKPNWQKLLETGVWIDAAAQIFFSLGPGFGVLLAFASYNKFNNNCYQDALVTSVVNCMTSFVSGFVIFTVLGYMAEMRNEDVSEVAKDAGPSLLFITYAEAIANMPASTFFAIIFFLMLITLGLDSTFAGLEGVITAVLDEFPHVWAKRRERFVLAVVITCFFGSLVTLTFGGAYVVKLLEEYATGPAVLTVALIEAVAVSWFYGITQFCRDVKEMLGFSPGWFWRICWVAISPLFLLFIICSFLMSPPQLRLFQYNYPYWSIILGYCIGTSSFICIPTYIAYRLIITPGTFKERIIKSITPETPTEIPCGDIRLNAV
T3 sequence (P23975 whole entry): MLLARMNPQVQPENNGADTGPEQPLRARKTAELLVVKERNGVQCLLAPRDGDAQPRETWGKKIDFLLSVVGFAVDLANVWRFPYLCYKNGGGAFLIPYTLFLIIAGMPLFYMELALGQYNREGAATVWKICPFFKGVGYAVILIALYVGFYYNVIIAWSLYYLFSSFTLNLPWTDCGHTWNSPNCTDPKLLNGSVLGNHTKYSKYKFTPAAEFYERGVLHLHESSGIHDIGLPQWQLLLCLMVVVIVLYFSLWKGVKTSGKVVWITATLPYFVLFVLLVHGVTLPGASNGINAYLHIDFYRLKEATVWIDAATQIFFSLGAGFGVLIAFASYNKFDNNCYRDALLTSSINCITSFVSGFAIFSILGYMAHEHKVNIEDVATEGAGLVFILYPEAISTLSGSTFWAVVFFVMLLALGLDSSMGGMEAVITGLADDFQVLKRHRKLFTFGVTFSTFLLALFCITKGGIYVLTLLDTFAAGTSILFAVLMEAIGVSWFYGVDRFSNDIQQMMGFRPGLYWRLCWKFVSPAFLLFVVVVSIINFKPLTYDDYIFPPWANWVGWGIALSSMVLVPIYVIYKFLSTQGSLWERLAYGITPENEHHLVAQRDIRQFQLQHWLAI
T2 sequence (Q01959 whole entry): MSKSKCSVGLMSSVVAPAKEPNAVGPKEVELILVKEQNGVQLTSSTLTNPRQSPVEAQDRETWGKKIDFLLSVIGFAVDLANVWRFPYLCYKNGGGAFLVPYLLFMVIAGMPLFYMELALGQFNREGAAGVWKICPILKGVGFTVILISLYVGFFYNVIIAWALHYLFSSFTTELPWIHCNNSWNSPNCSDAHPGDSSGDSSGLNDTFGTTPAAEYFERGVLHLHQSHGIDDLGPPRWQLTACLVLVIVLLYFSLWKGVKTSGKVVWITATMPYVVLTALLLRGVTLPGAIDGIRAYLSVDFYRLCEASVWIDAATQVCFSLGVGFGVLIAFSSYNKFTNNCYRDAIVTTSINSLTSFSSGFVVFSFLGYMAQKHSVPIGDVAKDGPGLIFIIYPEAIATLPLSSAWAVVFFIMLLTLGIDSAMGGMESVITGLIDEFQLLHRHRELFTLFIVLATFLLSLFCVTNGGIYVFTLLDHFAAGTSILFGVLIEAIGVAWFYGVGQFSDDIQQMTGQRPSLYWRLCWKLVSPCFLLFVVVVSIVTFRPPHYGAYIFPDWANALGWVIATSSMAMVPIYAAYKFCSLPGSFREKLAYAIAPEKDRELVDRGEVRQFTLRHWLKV

Fc1ccc(C(OCCCCN2CCNCC2)c2ccc(F)cc2)cc1 [Compound 3]
Ki ([1]; Table 5, oxalate salts): 1.9 ± 0.33 µM | Binding Ratios NET/DAT ([2]; Table 5): 5.7 | Binding Ratios SERT/DAT ([2]; Table 5): 3.2 | Ki ([2]; Table 5, [125I]RTI-55, oxalate salts, read-out: DAT binding affinity Ki): 600 ± 190 nM | IC50 ([3]; Table 6): 850 ± 270 nM | Discrimination Ratios (DR) [3H]DA reuptake/DAT binding ([4]; Table 6): 1.7 | IC50 ([4]; Table 6, read-out: Reuptake Inhibition [3H]DA IC50): 1 ± 0.19 µM | IC50 ([5]; Table 6, read-out: Reuptake Inhibition [3H]5-HT IC50): 2170 ± 78 nM | Ki ([6]; Table 5, oxalate salts): 3400 ± 1500 nM

O=C(Nc1ccc(F)cc1)N1CCN(CCCCOC(c2ccc(F)cc2)c2ccc(F)cc2)CC1 [Compound 4]
Ki ([1]; Table 1): 0.014 ± 0.006 µM | Ki [2]: 60 ± 8 nM | Binding Ratios NET/DAT ([2]; Table 1): 2.2 | Binding Ratios SERT/DAT ([2]; Table 1): 0.2 | IC50 ([3]; Table 1-1): 45 ± 17 nM | IC50 [4, 7]: 0.009 ± 0.003 µM | Discrimination Ratios [3H]DA reuptake/DAT binding ([4]; Table 1-1): 0.2 | IC50 [5, 8]: 68 ± 28 nM | Ki ([6]; Table 1): 133 ± 18 nM

O=C(NCc1ccc(F)cc1)N1CCN(CCCCOC(c2ccc(F)cc2)c2ccc(F)cc2)CC1 [Compound 5]
Ki ([1]; Table 1): 0.275 ± 0.021 µM | Ki [2]: 437 ± 12 nM | Binding Ratios NET/DAT ([2]; Table 1): 1.6 | Binding Ratios SERT/DAT ([2]; Table 1): 0.2 | IC50 ([3]; Table 1-1): 51 ± 4 nM | IC50 [4, 7]: 0.053 ± 0.022 µM | Discrimination Ratios [3H]DA reuptake/DAT binding ([4]; Table 1-1): 0.1 | IC50 [5, 8]: 6 ± 1 nM | Ki ([6]; Table 1): 706 ± 153 nM

Fc1ccc(C(OCCCCN2CCN(C(=S)Nc3cccnc3)CC2)c2ccc(F)cc2)cc1 [Compound 6]
Ki ([1]; Table 1): 1.08 ± 0.3 µM | Ki [2]: 170 ± 24 nM | Binding Ratios NET/DAT ([2]; Table 1): 14.4 | Binding Ratios SERT/DAT ([2]; Table 1): 6.4 | IC50 ([3]; Table 1-1): 359 ± 108 nM | IC50 [4, 7]: 0.097 ± 0.019 µM | Discrimination Ratios [3H]DA reuptake/DAT binding ([4]; Table 1-1): 0.6 | IC50 [5, 8]: 308 ± 102 nM | Ki ([6]; Table 1): 2450 ± 367 nM

O=C(NS(=O)(=O)c1ccc(F)cc1)N1CCN(CCCCOC(c2ccc(F)cc2)c2ccc(F)cc2)CC1 [Compound 7]
Ki ([1]; Table 1): 3.16 ± 0.666 µM | Binding Ratios NET/DAT ([2]; Table 1): 8.1 | Binding Ratios SERT/DAT ([2]; Table 1): 9.5 | Ki ([2]; Table 1, [125I]RTI-55, read-out: DAT binding affinity Ki): 334 ± 25 nM | IC50 ([3]; Table 1-1): 836 ± 93 nM | Discrimination Ratios [3H]DA reuptake/DAT binding ([4]; Table 1-1): 0.6 | IC50 ([4]; Table 1-1, read-out: Reuptake Inhibition [3H]DA IC50): 0.206 ± 0.064 µM | IC50 ([5]; Table 1-1, read-out: Reuptake Inhibition [3H]5-HT IC50): 1620 ± 769 nM | Ki ([6]; Table 1): 2690 ± 258 nM

O=C(Nc1ccc(-c2ccccc2)cc1)N1CCN(CCCCOC(c2ccc(F)cc2)c2ccc(F)cc2)CC1 [Compound 8]
Ki ([1]; Table 1, bound given in μM): > 10 µM | Ki ([1]; Table 1): > 10 µM | Ki [2]: 67 nM | Binding Ratios NET/DAT ([2]; Table 1): 104 | Binding Ratios SERT/DAT ([2]; Table 1): >149 | IC50 ([3]; Table 1-1): 56.3 ± 9.4 nM | IC50 [4, 7]: 0.419 ± 0.034 µM | Discrimination Ratios [3H]DA reuptake/DAT binding ([4]; Table 1-1): 6.3 | IC50 [5, 8]: 1020 ± 320 nM | Ki ([6]; Table 1): 6940 nM

NCC1CCCN(CCCCOC(c2ccc(F)cc2)c2ccc(F)cc2)C1 (stereo not drawn) [Compound 10]
Ki ([1]; Table 2): 0.883 µM | Ki [2]: 113 nM | Binding Ratios NET/DAT ([2]; Table 2): 4.8 | Binding Ratios SERT/DAT ([2]; Table 2): 7.8 | IC50 [4, 9]: 0.031 µM | Discrimination Ratios [3H]DA reuptake/DAT binding ([4]; Table 2-1): 0.3 | IC50 [5, 10]: 571 ± 127 nM | Ki ([6]; Table 2): 537 ± 112 nM

O=C(NCC1CCCN(CCCCOC(c2ccc(F)cc2)c2ccc(F)cc2)C1)c1cccc(C(F)(F)F)c1 (stereo not drawn) [Compound 11]
Ki ([1]; Table 2): 0.496 ± 0.177 µM | Ki [2]: 403 ± 81 nM | Binding Ratios NET/DAT ([2]; Table 2): 0.1 | Binding Ratios SERT/DAT ([2]; Table 2): 1.2 | IC50 ([3]; Table 2-1): 53 ± 3 nM | IC50 [4, 9]: 0.046 µM | Discrimination Ratios [3H]DA reuptake/DAT binding ([4]; Table 2-1): 0.1 | IC50 [5, 10]: 511 nM | Ki ([6]; Table 2): 49 ± 21 nM

O=C(NCC1CCCN(CCCCOC(c2ccc(F)cc2)c2ccc(F)cc2)C1)Nc1ccc(F)cc1 (stereo not drawn) [Compound 12]
Ki ([1]; Table 2): 0.198 µM | Ki [2]: 93 nM | Binding Ratios NET/DAT ([2]; Table 2): 1.1 | Binding Ratios SERT/DAT ([2]; Table 2): 2.1 | IC50 ([3]; Table 2-1): 20 nM | IC50 [4, 9]: 0.092 ± 0.024 µM | Discrimination Ratios [3H]DA reuptake/DAT binding ([4]; Table 2-1): 1.0 | IC50 [5, 10]: 123 ± 16 nM | Ki ([6]; Table 2): 99 nM

O=C(NCc1ccc(F)cc1)NCC1CCCN(CCCCOC(c2ccc(F)cc2)c2ccc(F)cc2)C1 (stereo not drawn) [Compound 13]
Ki ([1]; Table 2): 0.545 ± 0.194 µM | Ki [2]: 203 ± 68 nM | Binding Ratios NET/DAT ([2]; Table 2): 0.3 | Binding Ratios SERT/DAT ([2]; Table 2): 2.7 | IC50 ([3]; Table 2-1): 136 ± 32 nM | IC50 [4, 9]: 0.085 ± 0.039 µM | Discrimination Ratios [3H]DA reuptake/DAT binding ([4]; Table 2-1): 0.4 | IC50 [5, 10]: 177 ± 18 nM | Ki ([6]; Table 2): 60 nM

O=C(Nc1ccc(F)cc1)NC1CCN(CCCCOC(c2ccc(F)cc2)c2ccc(F)cc2)CC1 [Compound 17]
Ki ([1]; Table 3): 0.279 ± 0.057 µM | Ki [2]: 32 ± 1.4 nM | Binding Ratios NET/DAT ([2]; Table 3): 13.4 | Binding Ratios SERT/DAT ([2]; Table 3): 8.7 | IC50 ([3]; Table 3-1): 2530 nM | IC50 ([4]; Reuptake Inhibition [3H]DA IC50, Table 3-1): 7 ± 1.79 µM | Discrimination Ratios [3H]DA reuptake/DAT binding ([4]; Table 3-1): 219 | IC50 ([5]; Reuptake Inhibition [3H]5-HT IC50, Table 3-1): 7140 nM | Ki ([6]; Table 3): 430 ± 100 nM

NCC1(c2ccccc2)CCN(CCCCOC(c2ccc(F)cc2)c2ccc(F)cc2)CC1 [Compound 21]
Ki ([1]; Table 4): 0.347 ± 0.152 µM | Binding Ratios SERT/DAT ([2]; Table 4): 2.5 | Ki [2, 11]: 140 ± 53 nM | Discrimination Ratios [3H]DA reuptake/DAT binding ([4]; Table 4-1): 1.1 | IC50 [4, 12]: 0.155 µM | IC50 [5, 13]: 337 ± 128 nM

O=C(NCC1(c2ccccc2)CCN(CCCCOC(c2ccc(F)cc2)c2ccc(F)cc2)CC1)Nc1ccc(F)cc1 [Compound 22]
Ki ([1]; Table 4): 0.234 µM | Ki [2]: 83 nM | Binding Ratios SERT/DAT ([2]; Table 4): 2.8 | Discrimination Ratios [3H]DA reuptake/DAT binding ([4]; Table 4-1): 120.5 | IC50 ([4]; Table 4-1, bound given in μM, read-out: Reuptake Inhibition [3H]DA IC50): > 10 µM | IC50 [5, 13]: 367 ± 62 nM

CC(=O)NCC1(c2ccccc2)CCN(CCCCOC(c2ccc(F)cc2)c2ccc(F)cc2)CC1 [Compound 23]
Ki ([1]; Table 4): 0.258 ± 0.076 µM | Binding Ratios SERT/DAT ([2]; Table 4): 1.5 | Ki [2, 11]: 172 ± 14 nM | Discrimination Ratios [3H]DA reuptake/DAT binding ([4]; Table 4-1): 0.8 | IC50 [4, 12]: 0.129 ± 0.032 µM | IC50 [5, 13]: 359 ± 78 nM

O=C(CCN1C(=O)C=CC1=O)NCC1(c2ccccc2)CCN(CCCCOC(c2ccc(F)cc2)c2ccc(F)cc2)CC1 [Compound 25]
Ki ([1]; Table 4): 6.4 ± 2.68 µM | Binding Ratios SERT/DAT ([2]; Table 4): 7.7 | Ki [2, 11]: 827 ± 197 nM | Discrimination Ratios [3H]DA reuptake/DAT binding ([4]; Table 4-1): 1.2 | IC50 [4, 12]: 0.988 ± 0.305 µM | IC50 [5, 13]: 3120 ± 1470 nM

O=C(CCl)NCC1(c2ccccc2)CCN(CCCCOC(c2ccc(F)cc2)c2ccc(F)cc2)CC1 [Compound 26]
Ki ([1]; Table 4): 0.58 ± 0.177 µM | Binding Ratios SERT/DAT ([2]; Table 4): 1.8 | Ki [2, 11]: 316 ± 77 nM | Discrimination Ratios [3H]DA reuptake/DAT binding ([4]; Table 4-1): 1.5 | IC50 [4, 12]: 0.486 ± 0.25 µM | IC50 [5, 13]: 270 nM

Fc1ccc(C(OCCCCN2CCN(c3ccc(F)cc3)CC2)c2ccc(F)cc2)cc1 [Compound 31, 1-(4-Fluorophenyl)-4-[4-[bis(4-fluorophenyl)methoxy]butyl]piperazine]
Binding Ratios NET/DAT ([2]; Table 5): 7.8 | Binding Ratios SERT/DAT ([2]; Table 5): 1.3 | Discrimination Ratios (DR) [3H]DA reuptake/DAT binding ([4]; Table 6): 23

Fc1ccc(C(OCCCCN2CCN(c3cccc(Cl)c3)CC2)c2ccc(F)cc2)cc1 [Compound 33, 1-(3-Chlorophenyl)-4-[4-[bis(4-fluorophenyl)methoxy]butyl]piperazine]
Binding Ratios NET/DAT ([2]; Table 5): 1.7 | Binding Ratios SERT/DAT ([2]; Table 5): 0.8 | Discrimination Ratios (DR) [3H]DA reuptake/DAT binding ([4]; Table 6): 9.5

— patent US8772319B2 (priority 2004, dated 2014)
